“Also recorded” adds a separate entry of the source.
Key:
M5 muscarinic receptor = target: T1, M5 muscarinic receptor (Homo sapiens, UniProt P08912); experiment: stimulation of cAMP, M5 CHO cells (M5Gs); type: cell-based; set-up: host or cells: CHO cells, stably transfected; conditions: for E′MAX / τ / RAi / Δlog(τ/KA): M5Gs (↑cAMP); for E′MAX / τ: Table 8; for RAi: Table 8, relative to carbachol; for Δlog(τ/KA): Table 8, to carbachol
T1 sequence (P08912 1-532): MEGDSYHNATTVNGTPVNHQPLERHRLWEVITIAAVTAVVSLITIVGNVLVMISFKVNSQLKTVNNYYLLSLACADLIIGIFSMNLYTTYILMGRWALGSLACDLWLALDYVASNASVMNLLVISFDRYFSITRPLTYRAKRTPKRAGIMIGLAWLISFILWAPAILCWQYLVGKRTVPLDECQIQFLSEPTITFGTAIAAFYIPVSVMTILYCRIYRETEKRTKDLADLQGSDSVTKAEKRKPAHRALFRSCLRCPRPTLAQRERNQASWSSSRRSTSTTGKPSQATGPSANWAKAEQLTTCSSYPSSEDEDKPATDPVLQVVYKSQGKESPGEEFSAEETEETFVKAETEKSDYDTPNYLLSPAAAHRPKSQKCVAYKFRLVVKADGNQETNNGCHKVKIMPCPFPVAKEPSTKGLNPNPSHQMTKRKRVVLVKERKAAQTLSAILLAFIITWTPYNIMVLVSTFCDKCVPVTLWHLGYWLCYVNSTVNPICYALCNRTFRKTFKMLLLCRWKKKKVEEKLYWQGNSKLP
Procedure: To determine level of cAMP, cells in suspension were pre-incubated for 1 h with 0.4 μM [^3H]adenine, washed, and incubated for 10 min in the presence of isobutylmethylxanthine and 10 μM forskolin. […] Incubation was ended by addition of 0.2 ml of 2.5 M HCl to the samples. Samples were applied to alumina columns (1.5 g of alumina per column), washed with 2 ml ammonium acetate (pH=7.0) and eluted from columns with 4 ml ammonium acetate and measured by liquid scintillation spectrometry. […] The incubation was stopped by addition of 0.5 ml of chloroform methanol HCl mixture (2:1:0.1). After separation of water and organic phases, 0.6 ml of water phase was applied to Dowex columns (1.5 g of Dowex per column), washed by 20 ml of 60 mM ammonium formate/5 mM sodium borate buffer and eluted from columns with 4 ml of 1M ammonium formate/0.1 formic acid buffer and measured by liquid scintillation spectrometry.
(§1) Measurements of the production of cAMP and inositol phosphates: Levels of second messengers cAMP and inositol phosphates were determined in radiochemical chromatography assays as described previously. To determine level of cAMP, cells in suspension were pre-incubated for 1 h with 0.4 μM [^3H]adenine, washed, and incubated for 10 min in the presence of isobutylmethylxanthine and 10 μM forskolin. […] Incubation was ended by addition of 0.2 ml of 2.5 M HCl to the samples. Samples were applied to alumina columns (1.5 g of alumina per column), washed with 2 ml ammonium acetate (pH=7.0) and eluted from columns with 4 ml ammonium acetate and measured by liquid scintillation spectrometry. […] For this purpose, new CHO cell lines stably expressing promiscuous G15 G-protein and M2 or M4 receptor were generated by transfection with pCMV/hygro vector and hygromycin selection. To determine the rate of formation of inositol phosphates IPX, suspended cells were pre-incubated with 0.1 μM [^3H]myo-inositol for 60 min, washed, and incubated with 10 mM LiCl for 15 min. […] The incubation was stopped by addition of 0.5 ml of chloroform methanol HCl mixture (2:1:0.1). After separation of water and organic phases, 0.6 ml of water phase was applied to Dowex columns (1.5 g of Dowex per column), washed by 20 ml of 60 mM ammonium formate/5 mM sodium borate buffer and eluted from columns with 4 ml of 1M ammonium formate/0.1 formic acid buffer and measured by liquid scintillation spectrometry.
For bi-phasic response, curves were inhibitory and stimulatory phase were fitted separately. Operational Model of Functional Agonism
[formula] where y is functional response at concentration of tested compound x, EMAX is maximal response of the system, KA is equilibrium dissociation constant and nH is slope factor. Eq. 5 was fitted to data from functional experiments. Eq. 5 was fitted to data by the two-step procedure described earlier. […] In the second step, Eq. 5 with EMAX fixed to the value determined in the first step was fitted to individual experimental data sets. Relative Intrinsic Activity
Muscarinic receptors are also able to stimulate non-preferential signalling pathways.

cerebellum (M2 rich) = experiment: forskolin-stimulated cAMP in dissipated rat cerebellum; type: cell-based; conditions: in words
Procedure: Effects of compounds 6A and 7A were then measured ex vivo in dissipated rat tissues (FIG. 5). Accumulation of IPX was measured in dissipated brain cortex (rich in M1 & M3), submaxillary gland (M1 & M3), and ventral tegmental area (M5). Native tissues express about 10-times less muscarinic receptors than CHO cell lines. Accumulation of cAMP was measured in cerebellum (M2) and striatum (M4).
Rat dissipated tissues: Suspension of dissipated tissues from rat brain cortex, cerebellum, striatum, ventral tegmental area (VTA) and submaxillary glands was prepared as described previously in supplementary methods. Adult 8-weeks old male Wistar rats were scarified by cervical dislocation in accordance with current legislative and guidelines under permission of Czech Ministry of Agriculture 16OZ23113/2017-17214. Tissues were dissected immediately. Submaxillary glands were minced by scissors. Tissues were dispersed by incubation for 15 min at 37° C. in KHB supplemented with trypsin and trituration every 5 min. Large undissipated parts were removed by cell mesh. Then dissipated tissues were centrifuged 3 min at 250×g, re-suspended in KHB and centrifuged again to remove trypsin. Suspension of dissipated tissues was used immediately in experiments. Two submaxillary glands or about 400 mg of brain tissue was used a 96-sample assay.
as §1
To exclude the possibility that the observed effects of compounds 6A and 7A are the result of overexpression in the heterologous system, functional response to the compounds was measured ex vivo in dissipated native rat tissues. […] Accumulation of IPX was measured in brain cortex, submaxillary gland, and ventral tegmental area (VTA) as brain cortex and submaxillary glands are rich in M1 and in M3 receptors, respectively, and VTA is the only region expressing significant amount of M5 receptors. Accumulation of cAMP was measured in M2-rich cerebellum and M4-rich striatum.

| SMILES | EC50 (M5 muscarinic receptor) [µM] | Kd (M5 muscarinic receptor) [µM] | E′MAX (M5 muscarinic receptor) [fold increase] | τ (M5 muscarinic receptor) | RAi (M5 muscarinic receptor) | Δlog(τ/KA) (M5 muscarinic receptor) | forskolin-stimulated cAMP level (cerebellum (M2 rich)) | increase of cAMP level (M5 muscarinic receptor; M5, micromolar concentrations, in words) | Emax of inhibition of cAMP synthesis (cerebellum (M2 rich)) |
| --- | --- | --- | --- | --- | --- | --- | --- | --- | --- |
| O=C1CCCN1CC#CCN1CCCC1 [oxotremorine, reference compound] | 3.8 | 3.98 | 1.22 ± 0.03 | 0.09 ± 0.02 | 6.62 ± 0.58 | −0.82 ± 0.08 |  |  |  |
| C[N+](C)(C)CCOC(N)=O [carbachol, reference compound] |  |  | 1.23 ± 0.03 | 0.10 ± 0.02 |  | 0 | transient decrease in forskolin-stimulated cAMP level at nanomolar concentrations followed by an increase at micromolar concentrations; also recorded: transient decrease in forskolin-stimulated cAMP level at sub-micromolar concentrations followed by an increase at micromolar concentrations | at micromolar concentrations it stimulated cAMP production; also recorded: increased cAMP level at micromolar concentrations |  |
| C1=CCN(Cc2cccs2)CC1.Cl [Compound 6A, 1-[(thiophen-2-yl)methyl]-1,2,3,6-tetrahydropyridin-1-ium chloride] |  |  |  |  | 0 |  | only a decrease in cAMP level |  | comparable to inhibition by carbachol |
| C[N+]1(Cc2cccs2)CC=CCC1.[I-] (centres unmarked) [Compound 7A, 1-methyl-1-[(thiophen-2-yl)methyl]-1,2,3,6-tetrahydropyridin-1-ium iodide] |  |  |  |  | 0 |  | only a decrease in cAMP level |  | comparable to inhibition by carbachol |

From patent US11591323B2, “Muscarinic agonists as non-steroidal and non-opioid analgesics and methods of use thereof” (Barry University, priority 2019, dated 2023)
